# Test results from patent US9249125B2, “Pyrazole derivatives as p38 MAP inhibitors” (RESPIVERT LIMITED, priority 2012, dated 2016).
# pEC50, pIC50: −log10 of the molar value.
# Columns and labels:
# [1] = target: cSrc (Homo sapiens (Human), UniProt P12931); assay: c-Src enzyme inhibition (FRET, Z-LYTE); type: biochemical
# Summary of the method: (§1)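 Z-LYTE FRET kinase assay: enzyme (3000 or 2000 ng/mL stock, respectively) preincubated 2 h at RT with compound (4–0.004 μg/mL stocks), then FRET peptide plus ATP (800 μM stock for c-Src, 60 μM for Syk) added for 1 h. Protease development 1 h; phosphorylation from coumarin/fluorescein emission ratio.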
# [2] = test system: LPS-induced TNFα release in d-U937 cells; assay: LPS-induced TNFα release in d-U937 cells; type: cell-based; details: Homo sapiens, dU937, relative to 10 μg/mL BIRB796, read-out: LPS Induced Release of Cytokine in d-937 Cells TNFα REC50
# Summary of the method: (§2)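 Read-out: TNFα and IL-8 released into supernatant, sandwich ELISA, expressed as inhibition versus vehicle at each dose and fitted to give REC50. Cells were PMA-differentiated U937 (100 ng/mL, 48–72 hr), compound-exposed 2 hr before a 4 hr LPS stimulus (0.1 μg/mL).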
# [3] = target: GSK3α (Homo sapiens (Human), UniProt P49840); assay: GSK 3α enzyme inhibition (FRET, Z-LYTE); type: biochemical
# Chain of GSK3α (P49840 whole entry): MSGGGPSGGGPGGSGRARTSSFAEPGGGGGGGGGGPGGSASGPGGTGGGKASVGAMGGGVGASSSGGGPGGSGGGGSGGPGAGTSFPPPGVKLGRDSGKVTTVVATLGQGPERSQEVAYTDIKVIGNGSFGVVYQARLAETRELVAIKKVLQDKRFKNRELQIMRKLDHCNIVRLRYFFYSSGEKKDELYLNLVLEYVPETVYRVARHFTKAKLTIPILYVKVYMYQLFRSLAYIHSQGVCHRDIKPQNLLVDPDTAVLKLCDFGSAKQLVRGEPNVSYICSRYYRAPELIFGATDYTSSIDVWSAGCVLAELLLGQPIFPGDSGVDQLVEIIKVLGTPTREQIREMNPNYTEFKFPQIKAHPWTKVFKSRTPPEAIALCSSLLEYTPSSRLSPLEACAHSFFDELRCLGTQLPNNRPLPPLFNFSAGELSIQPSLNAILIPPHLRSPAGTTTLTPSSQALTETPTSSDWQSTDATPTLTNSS
# Summary of the method: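 Phosphorylation was read as the donor (coumarin) to acceptor (fluorescein) ratio after a 1 hr protease step destroying non-phosphorylated peptide. Before this, compound (4–0.004 μg/mL stocks) sat 2 hr at RT with GSK3α (500 ng/mL stock), followed by 1 hr kinase reaction with 8 μM peptide and 40 μM ATP stocks.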
# [4] = target: Syk (Homo sapiens (Human), UniProt P43405); assay: Syk enzyme inhibition (FRET, Z-LYTE); type: biochemical
# Summary of the method: as §1
# [5] = test system: LPS-induced IL-8 release in d-U937 cells; assay: LPS-induced IL-8 release in d-U937 cells; type: cell-based; details: Homo sapiens, dU937, read-out: LPS Induced Release of Cytokine in d-937 Cells IL-8 IC50
# Summary of the method: as §2
# [6] = test system: Poly I:C-induced ICAM-1 expression in BEAS2B cells; assay: Poly I:C-induced ICAM-1 expression in BEAS2B cells; type: cell-based; details: Homo sapiens, BEAS-2B, read-out: Poly IC induced ICAM1 in BEAS2B IC50
# Summary of the method: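 Cell-based ELISA read at 450 nm minus 655 nm, divided by crystal violet OD595 to normalize for cell number, gave ICAM-1 levels. Readout was taken 18 hr after poly I:C (1 μg/mL, Oligofectamine) transfection of human bronchial BEAS2B cells pretreated 2 hr with test compound.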
# [7] = test system: d-U937 cells; assay: Cell viability: MTT assay; type: cell-based, human; details: 1 μg/mL
# Summary of the method: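 MTT read-out (1 h, absorbance 550 nm) on d-U937 cells after pre-incubation with 1 or 10 μg/mL compound under two regimes: 4 h, 5% FCS, or 24 h, 10% FCS RPMI1640. Values are percent loss of viability relative to vehicle (0.5% DMSO), so increases are reported as negative.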
# [8] = target: p38 MAPKα (Homo sapiens (Human), UniProt Q16539); assay: p38 MAPKα enzyme inhibition (FRET, Z-LYTE); type: biochemical
# Chain of p38 MAPKα (Q16539 whole entry): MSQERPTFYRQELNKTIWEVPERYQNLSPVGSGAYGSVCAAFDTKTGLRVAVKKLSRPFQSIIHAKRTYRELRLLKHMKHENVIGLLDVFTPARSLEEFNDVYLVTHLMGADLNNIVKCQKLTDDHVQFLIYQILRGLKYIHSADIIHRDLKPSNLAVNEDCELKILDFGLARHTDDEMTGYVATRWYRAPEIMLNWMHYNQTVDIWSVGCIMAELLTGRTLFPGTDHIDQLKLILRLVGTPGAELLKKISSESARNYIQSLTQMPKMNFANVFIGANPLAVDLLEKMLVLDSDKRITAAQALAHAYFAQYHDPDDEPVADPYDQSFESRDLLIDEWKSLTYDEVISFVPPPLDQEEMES
# Chain of cSrc (P12931 whole entry, looked up): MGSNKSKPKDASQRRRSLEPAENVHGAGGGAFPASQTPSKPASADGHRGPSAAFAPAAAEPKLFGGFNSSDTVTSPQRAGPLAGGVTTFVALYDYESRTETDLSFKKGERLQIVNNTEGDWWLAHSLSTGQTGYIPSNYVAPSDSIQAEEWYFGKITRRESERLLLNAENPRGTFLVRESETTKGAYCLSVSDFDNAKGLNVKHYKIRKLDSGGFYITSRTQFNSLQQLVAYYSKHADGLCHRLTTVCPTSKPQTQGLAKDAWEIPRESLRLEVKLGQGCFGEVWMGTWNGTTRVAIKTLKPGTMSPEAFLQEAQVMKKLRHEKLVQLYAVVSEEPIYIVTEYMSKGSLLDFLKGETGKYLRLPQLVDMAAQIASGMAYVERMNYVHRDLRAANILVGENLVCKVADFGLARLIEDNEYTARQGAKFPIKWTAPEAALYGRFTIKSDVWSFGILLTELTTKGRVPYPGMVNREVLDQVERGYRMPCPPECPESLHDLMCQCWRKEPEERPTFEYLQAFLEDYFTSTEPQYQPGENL
pIC50 [1],pEC50 [2],pIC50 [3],pIC50 [4],pIC50 [5],pIC50 [8],SMILES,pIC50 [6],MTT Assay Cell viability at time point in d-U937 cells 4 h [7],MTT Assay Cell viability at time point in d-U937 cells 24 h [7]
8.70,8.80,5.64,8.52,8.77,7.89,Cc1n[nH]c2ccc(Nc3nccc(Oc4ccc(NC(=O)Nc5cc(C(C)(C)C)nn5-c5ccc(OCCN6CCOCC6)cc5)c5ccccc45)n3)cc12 [Example 72],6.78,"−ve (−ve and +ve indicate that the value is below and above respectively, the no significant effect threshold, defined as 30% inhibition at 1 μg/mL at the time point indicated.)","−ve (−ve and +ve indicate that the value is below and above respectively, the no significant effect threshold, defined as 30% inhibition at 1 μg/mL at the time point indicated.)"
7.82,8.19,5.55,7.72,7.80,6.47,"Cc1cc2cc(Nc3nccc(Oc4ccc(NC(=O)Nc5cc(C(C)(C)C)nn5-c5ccc(OCCN6CCOCC6)cc5)c5ccccc45)n3)ccc2[nH]1 [Example 66, 1-(3-(tert-butyl)-1-(4-(2-morpholinoethoxy)phenyl)-1H-pyrazol-5-yl)-3-(4-((2-((2-methyl-1H-indol-5-yl)amino)pyrimidin-4-yl)oxy)naphthalen-1-yl)urea]",8.16,"−ve (−ve and +ve indicate that the value is below and above respectively, the no significant effect threshold, defined as 30% inhibition at 1 μg/mL at the time point indicated.)","−ve (−ve and +ve indicate that the value is below and above respectively, the no significant effect threshold, defined as 30% inhibition at 1 μg/mL at the time point indicated.)"
7.92,7.95,5.46,8.05,< 5.88,6.57,"Cc1n[nH]c2cc(Nc3nccc(Oc4ccc(NC(=O)Nc5cc(C(C)(C)C)nn5-c5ccc(OCCN6CCOCC6)cc5)c5ccccc45)n3)ccc12 [Example 71, 1-(3-(tert-butyl)-1-(4-(2-morpholinoethoxy)phenyl)-1H-pyrazol-5-yl)-3-(4-((2-((3-methyl-1H-indazol-6-yl)amino)pyrimidin-4-yl)oxy)naphthalen-1-yl)urea]",8.66,"−ve (−ve and +ve indicate that the value is below and above respectively, the no significant effect threshold, defined as 30% inhibition at 1 μg/mL at the time point indicated.)","−ve (−ve and +ve indicate that the value is below and above respectively, the no significant effect threshold, defined as 30% inhibition at 1 μg/mL at the time point indicated.)"
8.00,8.21,< 5.80,7.62,7.76,7.10,"CC(C)(C)c1cc(NC(=O)Nc2ccc(Oc3ccnc(Nc4ccc5[nH]ncc5c4)n3)c3ccccc23)n(-c2ccc(O)cc2)n1 [Example 7, 1-(4-((2-((1H-Indazol-5-yl)amino)pyrimidin-4-yl)oxy)naphthalen-1-yl)-3-(3-(tert-butyl)-1-(4-hydroxyphenyl)-1H-pyrazol-5-yl)urea]",7.79,"−ve (−ve and +ve indicate that the value is below and above respectively, the no significant effect threshold, defined as 30% inhibition at 1 μg/mL at the time point indicated.)","−ve (−ve and +ve indicate that the value is below and above respectively, the no significant effect threshold, defined as 30% inhibition at 1 μg/mL at the time point indicated.)"
